From ChEMBL document CHEMBL1944514, “Fluorescence detection of single nucleotide polymorphisms using nucleic acid probe containing tricyclic base-linked acyclonucleoside” (Bioorg Med Chem Lett, 2012)
Active and inactive are the calls of the source. No cut-off for these calls is given here.

Legend:
Assay type in all cases: nucleic-acid assay
Nucleic Acid [1] = experiment: Binding affinity to 3'-r(CUUCCAGUUGCAUAGAGA)-5' RNA assessed as fluorescence quenching by spectrophotometry
Nucleic Acid [2] = experiment: Binding affinity to 3'-r(CUUCCAGUUACAUAGAGA)-5' RNA assessed as fluorescence quenching by spectrophotometry
Nucleic Acid [3] = experiment: Binding affinity to 3'-r(CUUCCAGUUUCAUAGAGA)-5' RNA assessed as fluorescence quenching by spectrophotometry
Nucleic Acid [4] = experiment: Binding affinity to 3'-r(CUUCCAGUUCCAUAGAGA)-5' RNA assessed as fluorescence quenching by spectrophotometry

Row | Structure (SMILES) | Activity (Nucleic Acid [1]) | Activity (Nucleic Acid [2]) | Activity (Nucleic Acid [3]) | Activity (Nucleic Acid [4])
1 | Cc1cn([C@H]2C[C@H](OP(=O)(O)OC[C@H]3O[C@@H](n4ccc(N)nc4=O)C[C@@H]3OP(=O)(O)OC[C@H]3O[C@@H](n4cnc5c(N)ncnc54)C[C@@H]3OP(=O)(O)OC[C@H]3O[C@@H](n4cnc5c(N)ncnc54)C[C@@H]3OP(=O)(O)OC[C@H]3O[C@@H](n4cc(C)c(=O)[nH]c4=O)C[C@@H]3OP(=O)(O)OC[C@H](Cn3cnc4cc5c(N)ncnc5nc43)OP(=O)(O)OC[C@H]3O[C@@H](n4cnc5c(=O)[nH]c(N)nc54)C[C@@H]3OP(=O)(O)CC[C@H]3O[C@@H](n4cc(C)c(=O)[nH]c4=O)C[C@@H]3OP(=O)(O)OC[C@H]3O[C@@H](n4cnc5c(N)ncnc54)C[C@@H]3OP(=O)(O)OC[C@H]3O[C@@H](n4cc(C)c(=O)[nH]c4=O)C[C@@H]3OP(=O)(O)OC[C@H]3O[C@@H](n4ccc(N)nc4=O)C[C@@H]3OP(=O)(O)OC[C@H]3O[C@@H](n4cc(C)c(=O)[nH]c4=O)C[C@@H]3OP(=O)(O)OC[C@H]3O[C@@H](n4ccc(N)nc4=O)C[C@@H]3OP(=O)(O)OC[C@H]3O[C@@H](n4cc(C)c(=O)[nH]c4=O)C[C@@H]3O)[C@@H](COP(=O)(O)O[C@H]3C[C@H](n4cnc5c(=O)[nH]c(N)nc54)O[C@@H]3COP(=O)(O)O[C@H]3C[C@H](n4cnc5c(=O)[nH]c(N)nc54)O[C@@H]3COP(=O)(O)O[C@H]3C[C@H](n4cnc5c(N)ncnc54)O[C@@H]3COP(=O)(O)O[C@H]3C[C@H](n4cnc5c(N)ncnc54)O[C@@H]3COP(=O)(O)O[C@H]3C[C@H](n4cnc5c(=O)[nH]c(N)nc54)O[C@@H]3CO)O2)c(=O)nc1N | Active | inactive | Active | Active
2 | Cc1cn([C@H]2C[C@H](OP(=O)(O)OC[C@H]3O[C@@H](n4ccc(N)nc4=O)C[C@@H]3OP(=O)(O)OC[C@H]3O[C@@H](n4cnc5c(N)ncnc54)C[C@@H]3OP(=O)(O)OC[C@H]3O[C@@H](n4cnc5c(N)ncnc54)C[C@@H]3OP(=O)(O)OC[C@H](Cn3cnc4cc5c(N)ncnc5nc43)OP(=O)(O)OC[C@H]3O[C@@H](n4ccc(N)nc4=O)C[C@@H]3OP(=O)(O)OC[C@H]3O[C@@H](n4cnc5c(=O)[nH]c(N)nc54)C[C@@H]3OP(=O)(O)CC[C@H]3O[C@@H](n4cc(C)c(=O)[nH]c4=O)C[C@@H]3OP(=O)(O)OC[C@H]3O[C@@H](n4cnc5c(N)ncnc54)C[C@@H]3OP(=O)(O)OC[C@H]3O[C@@H](n4cc(C)c(=O)[nH]c4=O)C[C@@H]3OP(=O)(O)OC[C@H]3O[C@@H](n4ccc(N)nc4=O)C[C@@H]3OP(=O)(O)OC[C@H]3O[C@@H](n4cc(C)c(=O)[nH]c4=O)C[C@@H]3OP(=O)(O)OC[C@H]3O[C@@H](n4ccc(N)nc4=O)C[C@@H]3OP(=O)(O)OC[C@H]3O[C@@H](n4cc(C)c(=O)[nH]c4=O)C[C@@H]3O)[C@@H](COP(=O)(O)O[C@H]3C[C@H](n4cnc5c(=O)[nH]c(N)nc54)O[C@@H]3COP(=O)(O)O[C@H]3C[C@H](n4cnc5c(=O)[nH]c(N)nc54)O[C@@H]3COP(=O)(O)O[C@H]3C[C@H](n4cnc5c(N)ncnc54)O[C@@H]3COP(=O)(O)O[C@H]3C[C@H](n4cnc5c(N)ncnc54)O[C@@H]3COP(=O)(O)O[C@H]3C[C@H](n4cnc5c(=O)[nH]c(N)nc54)O[C@@H]3CO)O2)c(=O)nc1N | inactive | Active | Active | Active
3 | Cc1cn([C@H]2C[C@H](OP(=O)(O)OC[C@H]3O[C@@H](n4ccc(N)nc4=O)C[C@@H]3OP(=O)(O)OC[C@H]3O[C@@H](n4cnc5c(N)ncnc54)C[C@@H]3OP(=O)(O)OC[C@H]3O[C@@H](n4cnc5c(N)ncnc54)C[C@@H]3OP(=O)(O)OC[C@H]3O[C@@H](n4cnc5c(=O)[nH]c(N)nc54)C[C@@H]3OP(=O)(O)OC[C@H](Cn3cnc4cc5c(N)ncnc5nc43)OP(=O)(O)OC[C@H]3O[C@@H](n4cnc5c(=O)[nH]c(N)nc54)C[C@@H]3OP(=O)(O)CC[C@H]3O[C@@H](n4cc(C)c(=O)[nH]c4=O)C[C@@H]3OP(=O)(O)OC[C@H]3O[C@@H](n4cnc5c(N)ncnc54)C[C@@H]3OP(=O)(O)OC[C@H]3O[C@@H](n4cc(C)c(=O)[nH]c4=O)C[C@@H]3OP(=O)(O)OC[C@H]3O[C@@H](n4ccc(N)nc4=O)C[C@@H]3OP(=O)(O)OC[C@H]3O[C@@H](n4cc(C)c(=O)[nH]c4=O)C[C@@H]3OP(=O)(O)OC[C@H]3O[C@@H](n4ccc(N)nc4=O)C[C@@H]3OP(=O)(O)OC[C@H]3O[C@@H](n4cc(C)c(=O)[nH]c4=O)C[C@@H]3O)[C@@H](COP(=O)(O)O[C@H]3C[C@H](n4cnc5c(=O)[nH]c(N)nc54)O[C@@H]3COP(=O)(O)O[C@H]3C[C@H](n4cnc5c(=O)[nH]c(N)nc54)O[C@@H]3COP(=O)(O)O[C@H]3C[C@H](n4cnc5c(N)ncnc54)O[C@@H]3COP(=O)(O)O[C@H]3C[C@H](n4cnc5c(N)ncnc54)O[C@@H]3COP(=O)(O)O[C@H]3C[C@H](n4cnc5c(=O)[nH]c(N)nc54)O[C@@H]3CO)O2)c(=O)nc1N | Active | Active | Active | inactive

Further lines, results first:

Row | Activity (Nucleic Acid [1]) | Activity (Nucleic Acid [2]) | Activity (Nucleic Acid [3]) | Activity (Nucleic Acid [4]) | Structure (SMILES)
4 | Active | Active | inactive | Active | Cc1cn([C@H]2C[C@H](OP(=O)(O)OC[C@H]3O[C@@H](n4ccc(N)nc4=O)C[C@@H]3OP(=O)(O)OC[C@H]3O[C@@H](n4cnc5c(N)ncnc54)C[C@@H]3OP(=O)(O)OC[C@H]3O[C@@H](n4cnc5c(N)ncnc54)C[C@@H]3OP(=O)(O)OC[C@H](Cn3cnc4cc5c(N)ncnc5nc43)OP(=O)(O)OC[C@H]3O[C@@H](n4cnc5c(N)ncnc54)C[C@@H]3OP(=O)(O)OC[C@H]3O[C@@H](n4cnc5c(=O)[nH]c(N)nc54)C[C@@H]3OP(=O)(O)CC[C@H]3O[C@@H](n4cc(C)c(=O)[nH]c4=O)C[C@@H]3OP(=O)(O)OC[C@H]3O[C@@H](n4cnc5c(N)ncnc54)C[C@@H]3OP(=O)(O)OC[C@H]3O[C@@H](n4cc(C)c(=O)[nH]c4=O)C[C@@H]3OP(=O)(O)OC[C@H]3O[C@@H](n4ccc(N)nc4=O)C[C@@H]3OP(=O)(O)OC[C@H]3O[C@@H](n4cc(C)c(=O)[nH]c4=O)C[C@@H]3OP(=O)(O)OC[C@H]3O[C@@H](n4ccc(N)nc4=O)C[C@@H]3OP(=O)(O)OC[C@H]3O[C@@H](n4cc(C)c(=O)[nH]c4=O)C[C@@H]3O)[C@@H](COP(=O)(O)O[C@H]3C[C@H](n4cnc5c(=O)[nH]c(N)nc54)O[C@@H]3COP(=O)(O)O[C@H]3C[C@H](n4cnc5c(=O)[nH]c(N)nc54)O[C@@H]3COP(=O)(O)O[C@H]3C[C@H](n4cnc5c(N)ncnc54)O[C@@H]3COP(=O)(O)O[C@H]3C[C@H](n4cnc5c(N)ncnc54)O[C@@H]3COP(=O)(O)O[C@H]3C[C@H](n4cnc5c(=O)[nH]c(N)nc54)O[C@@H]3CO)O2)c(=O)nc1N
5 | Active | Active | Active | Active | Cc1cn([C@H]2C[C@H](OP(=O)(O)OC[C@H]3O[C@@H](n4ccc(N)nc4=O)C[C@@H]3OP(=O)(O)OC[C@H]3O[C@@H](n4cnc5c(N)ncnc54)C[C@@H]3OP(=O)(O)OC[C@H]3O[C@@H](n4cnc5c(N)ncnc54)C[C@@H]3OP(=O)(O)OC[C@H]3O[C@@H](n4ccc(N)nc4=O)C[C@@H]3OP(=O)(O)OC[C@H](Cn3cnc4cc5c(N)ncnc5nc43)OP(=O)(O)OC[C@H]3O[C@@H](n4cnc5c(=O)[nH]c(N)nc54)C[C@@H]3OP(=O)(O)CC[C@H]3O[C@@H](n4cc(C)c(=O)[nH]c4=O)C[C@@H]3OP(=O)(O)OC[C@H]3O[C@@H](n4cnc5c(N)ncnc54)C[C@@H]3OP(=O)(O)OC[C@H]3O[C@@H](n4cc(C)c(=O)[nH]c4=O)C[C@@H]3OP(=O)(O)OC[C@H]3O[C@@H](n4ccc(N)nc4=O)C[C@@H]3OP(=O)(O)OC[C@H]3O[C@@H](n4cc(C)c(=O)[nH]c4=O)C[C@@H]3OP(=O)(O)OC[C@H]3O[C@@H](n4ccc(N)nc4=O)C[C@@H]3OP(=O)(O)OC[C@H]3O[C@@H](n4cc(C)c(=O)[nH]c4=O)C[C@@H]3O)[C@@H](COP(=O)(O)O[C@H]3C[C@H](n4cnc5c(=O)[nH]c(N)nc54)O[C@@H]3COP(=O)(O)O[C@H]3C[C@H](n4cnc5c(=O)[nH]c(N)nc54)O[C@@H]3COP(=O)(O)O[C@H]3C[C@H](n4cnc5c(N)ncnc54)O[C@@H]3COP(=O)(O)O[C@H]3C[C@H](n4cnc5c(N)ncnc54)O[C@@H]3COP(=O)(O)O[C@H]3C[C@H](n4cnc5c(=O)[nH]c(N)nc54)O[C@@H]3CO)O2)c(=O)nc1N
6 | Active | Active | Active | inactive | Cc1cn([C@H]2C[C@H](OP(=O)(O)OC[C@H]3O[C@@H](n4ccc(N)nc4=O)C[C@@H]3OP(=O)(O)OC[C@H]3O[C@@H](n4cnc5c(N)ncnc54)C[C@@H]3OP(=O)(O)OC[C@H]3O[C@@H](n4cnc5c(N)ncnc54)C[C@@H]3OP(=O)(O)OC[C@H](Cn3cnc4cc5c(N)ncnc5nc43)OP(=O)(O)OC[C@H]3O[C@@H](n4cnc5c(=O)[nH]c(N)nc54)C[C@@H]3OP(=O)(O)OC[C@H]3O[C@@H](n4cnc5c(=O)[nH]c(N)nc54)C[C@@H]3OP(=O)(O)CC[C@H]3O[C@@H](n4cc(C)c(=O)[nH]c4=O)C[C@@H]3OP(=O)(O)OC[C@H]3O[C@@H](n4cnc5c(N)ncnc54)C[C@@H]3OP(=O)(O)OC[C@H]3O[C@@H](n4cc(C)c(=O)[nH]c4=O)C[C@@H]3OP(=O)(O)OC[C@H]3O[C@@H](n4ccc(N)nc4=O)C[C@@H]3OP(=O)(O)OC[C@H]3O[C@@H](n4cc(C)c(=O)[nH]c4=O)C[C@@H]3OP(=O)(O)OC[C@H]3O[C@@H](n4ccc(N)nc4=O)C[C@@H]3OP(=O)(O)OC[C@H]3O[C@@H](n4cc(C)c(=O)[nH]c4=O)C[C@@H]3O)[C@@H](COP(=O)(O)O[C@H]3C[C@H](n4cnc5c(=O)[nH]c(N)nc54)O[C@@H]3COP(=O)(O)O[C@H]3C[C@H](n4cnc5c(=O)[nH]c(N)nc54)O[C@@H]3COP(=O)(O)O[C@H]3C[C@H](n4cnc5c(N)ncnc54)O[C@@H]3COP(=O)(O)O[C@H]3C[C@H](n4cnc5c(N)ncnc54)O[C@@H]3COP(=O)(O)O[C@H]3C[C@H](n4cnc5c(=O)[nH]c(N)nc54)O[C@@H]3CO)O2)c(=O)nc1N
